Source: ChEMBL document CHEMBL5550107, “Fluorescent probes and degraders of the sterol transport protein Aster-A” (Bioorg Med Chem, 2024)
The source made the active and inactive calls. The calls are words filed in the database; no cut-off is given here.

What was measured:
Protein Aster-A [1] = target: T1, Protein Aster-A (Homo sapiens, UniProt Q96CP6); test: Binding affinity to aster A (unknown origin) assessed as change in fluorescence intensity
T1 sequence (Q96CP6 whole entry): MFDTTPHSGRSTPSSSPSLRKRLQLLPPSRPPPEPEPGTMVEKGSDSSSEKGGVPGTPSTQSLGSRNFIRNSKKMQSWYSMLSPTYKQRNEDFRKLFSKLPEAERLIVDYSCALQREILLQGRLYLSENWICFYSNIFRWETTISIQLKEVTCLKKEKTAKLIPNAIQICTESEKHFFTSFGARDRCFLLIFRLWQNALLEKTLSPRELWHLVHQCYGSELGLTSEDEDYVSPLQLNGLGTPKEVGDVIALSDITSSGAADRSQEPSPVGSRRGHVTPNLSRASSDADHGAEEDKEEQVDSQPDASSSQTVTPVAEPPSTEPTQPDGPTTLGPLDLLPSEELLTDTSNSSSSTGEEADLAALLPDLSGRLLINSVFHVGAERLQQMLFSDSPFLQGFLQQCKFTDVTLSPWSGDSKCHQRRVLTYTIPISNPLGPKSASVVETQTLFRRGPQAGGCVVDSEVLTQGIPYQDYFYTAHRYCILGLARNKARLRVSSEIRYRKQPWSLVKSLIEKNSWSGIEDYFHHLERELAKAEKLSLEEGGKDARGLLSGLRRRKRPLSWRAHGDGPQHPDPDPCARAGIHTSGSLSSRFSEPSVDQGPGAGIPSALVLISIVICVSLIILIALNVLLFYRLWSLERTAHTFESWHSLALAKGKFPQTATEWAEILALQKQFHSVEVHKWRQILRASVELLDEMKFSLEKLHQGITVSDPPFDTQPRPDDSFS

[2] = target: T2, Protein Aster-A (Homo sapiens) (UniProt Q96CP6); test: Binding affinity to aster A (unknown origin) assessed as change in melting temperature by differential scanning fluorimetry analysis
T2 sequence (whole entry): T1 sequence (Q96CP6 whole entry)

[3] = target: Oxysterol-binding protein-related protein 1 (OSBPL1A) (Homo sapiens) (UniProt Q9BXW6); test: Binding affinity to ORP1 (unknown origin)
Sequence of Oxysterol-binding protein-related protein 1 (OSBPL1A) (Homo sapiens) (Q9BXW6 whole entry, looked up): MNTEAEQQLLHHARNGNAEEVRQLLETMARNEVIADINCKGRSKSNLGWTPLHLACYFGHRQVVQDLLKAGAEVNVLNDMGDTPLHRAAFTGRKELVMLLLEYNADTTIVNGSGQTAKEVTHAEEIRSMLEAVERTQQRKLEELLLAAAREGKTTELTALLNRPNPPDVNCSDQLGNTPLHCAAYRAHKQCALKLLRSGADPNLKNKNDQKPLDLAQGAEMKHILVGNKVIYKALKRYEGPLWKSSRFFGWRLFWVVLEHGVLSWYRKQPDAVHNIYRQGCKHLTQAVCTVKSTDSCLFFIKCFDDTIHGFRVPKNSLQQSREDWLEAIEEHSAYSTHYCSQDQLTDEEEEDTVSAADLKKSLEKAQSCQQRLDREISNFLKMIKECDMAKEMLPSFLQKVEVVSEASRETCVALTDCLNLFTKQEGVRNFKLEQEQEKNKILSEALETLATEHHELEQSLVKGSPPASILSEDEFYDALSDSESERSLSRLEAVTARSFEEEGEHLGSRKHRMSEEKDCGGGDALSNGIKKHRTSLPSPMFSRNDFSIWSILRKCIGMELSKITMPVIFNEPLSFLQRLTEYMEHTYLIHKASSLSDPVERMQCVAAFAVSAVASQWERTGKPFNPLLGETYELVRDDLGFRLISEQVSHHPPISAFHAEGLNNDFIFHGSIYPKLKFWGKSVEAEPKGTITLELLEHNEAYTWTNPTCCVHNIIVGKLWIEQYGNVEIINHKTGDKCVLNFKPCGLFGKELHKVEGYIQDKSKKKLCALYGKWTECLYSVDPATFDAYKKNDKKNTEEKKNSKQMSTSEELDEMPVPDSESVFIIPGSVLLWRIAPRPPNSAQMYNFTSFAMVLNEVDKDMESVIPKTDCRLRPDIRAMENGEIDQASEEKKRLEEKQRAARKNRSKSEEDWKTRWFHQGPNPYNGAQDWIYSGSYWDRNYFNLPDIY

Protein Aster-A [4] = target: T1, Protein Aster-A; test: Binding affinity to aster A (unknown origin) by fluorescence polarization method
MCF7 = test: Inhibition of autophagy in human MCF7 cells expressing eGFP-LC3; format: functional, cell-based
Protein Aster-A [5] = target: T1, Protein Aster-A; test: Displacement of tert-butyl 2-(4-((3-(4-(3-((2-(2,6-dioxopiperidin-3-yl)-1,3-dioxoisoindolin-4-yl)amino)propoxy)butoxy)propyl)carbamoyl)benzamido)-3a,6,7,7a-tetrahydrothiazolo[5,4-c]pyridine-5(4H)-carboxylate from aster A (unknown origin) assessed as change in fluorescence intensity
Protein Aster-A [6] = target: T1, Protein Aster-A; test: Displacement of 22-NBD-Chol from aster A (unknown origin) by fluorescence polarization method
[7] = target: T3, Protein cereblon/Protein Aster-A (Homo sapiens, UniProt Q96SW2+Q96CP6); test: PROTAC activity at CRBN/aster A in human HeLa cells assessed as aster A degradation at 10 uM incubated for 18 hrs in presence of MG132 by Western blotting analysis; format: cell-based
Target sequence in this assay (Q96SW2 whole entry, looked up, one chain of several): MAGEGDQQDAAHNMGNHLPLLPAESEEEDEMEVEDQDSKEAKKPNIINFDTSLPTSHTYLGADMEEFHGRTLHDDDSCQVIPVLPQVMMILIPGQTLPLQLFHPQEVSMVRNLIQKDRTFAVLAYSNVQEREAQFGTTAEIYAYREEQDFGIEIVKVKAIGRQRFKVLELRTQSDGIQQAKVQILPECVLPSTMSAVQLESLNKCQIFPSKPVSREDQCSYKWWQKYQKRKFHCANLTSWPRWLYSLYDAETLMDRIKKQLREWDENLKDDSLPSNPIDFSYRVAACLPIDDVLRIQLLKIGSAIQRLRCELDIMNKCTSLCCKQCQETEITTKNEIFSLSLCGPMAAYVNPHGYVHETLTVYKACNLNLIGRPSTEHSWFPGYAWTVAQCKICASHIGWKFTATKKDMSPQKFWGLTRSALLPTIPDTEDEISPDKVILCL

[8] = target: T2, Protein Aster-A (Homo sapiens); test: Induction of aster A degradation in human A549 cells; format: cell-based
[9] = target: T3, Protein cereblon/Protein Aster-A; test: PROTAC activity at CRBN/aster A in human HeLa cells assessed as aster A degradation incubated for 18 hrs by Western blotting analysis; format: cell-based
[10] = target: T3, Protein cereblon/Protein Aster-A; test: PROTAC activity at CRBN/aster A in human HeLa cells at 10 uM incubated for 18 hrs by Western blotting analysis; format: cell-based
Target sequence in this assay (Q96SW2 whole entry, looked up, one chain of several): as above

[11] = target: T3, Protein cereblon/Protein Aster-A; test: PROTAC activity at CRBN/aster A in human HeLa cells assessed as aster A degradation at 10 uM incubated for 18 hrs in presence of MLN4924 by Western blotting analysis; format: cell-based
Target sequence in this assay (Q96SW2 whole entry, looked up, one chain of several): as above

Homo sapiens = organism: Homo sapiens; test: Binding affinity to aster B (unknown origin)
[12] = target: T3, Protein cereblon/Protein Aster-A; test: PROTAC activity at CRBN/aster A in human HeLa cells assessed as maximum degradation incubated for 18 hrs by Western blotting analysis; format: cell-based
Target sequence in this assay (Q96SW2 whole entry, looked up, one chain of several): as above

[13] = target: T4, Steroidogenic acute regulatory protein, mitochondrial (Homo sapiens) (UniProt P49675); test: Binding affinity to STARD1 (unknown origin)
T4 sequence (whole entry): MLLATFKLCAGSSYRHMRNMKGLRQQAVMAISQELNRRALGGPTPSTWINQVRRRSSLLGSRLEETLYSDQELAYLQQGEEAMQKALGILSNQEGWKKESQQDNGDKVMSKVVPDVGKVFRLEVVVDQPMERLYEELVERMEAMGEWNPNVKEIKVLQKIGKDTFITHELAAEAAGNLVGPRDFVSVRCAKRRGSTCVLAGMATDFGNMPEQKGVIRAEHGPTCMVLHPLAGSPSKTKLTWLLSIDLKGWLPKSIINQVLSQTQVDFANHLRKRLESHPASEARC

[14] = target: T2, Protein Aster-A (Homo sapiens); test: Induction of aster A degradation in human MCF7 cells; format: cell-based
[15] = target: Protein Aster-C (Homo sapiens) (UniProt Q8IYS0); test: Binding affinity to aster C (unknown origin)
Sequence of Protein Aster-C (Homo sapiens) (Q8IYS0 whole entry): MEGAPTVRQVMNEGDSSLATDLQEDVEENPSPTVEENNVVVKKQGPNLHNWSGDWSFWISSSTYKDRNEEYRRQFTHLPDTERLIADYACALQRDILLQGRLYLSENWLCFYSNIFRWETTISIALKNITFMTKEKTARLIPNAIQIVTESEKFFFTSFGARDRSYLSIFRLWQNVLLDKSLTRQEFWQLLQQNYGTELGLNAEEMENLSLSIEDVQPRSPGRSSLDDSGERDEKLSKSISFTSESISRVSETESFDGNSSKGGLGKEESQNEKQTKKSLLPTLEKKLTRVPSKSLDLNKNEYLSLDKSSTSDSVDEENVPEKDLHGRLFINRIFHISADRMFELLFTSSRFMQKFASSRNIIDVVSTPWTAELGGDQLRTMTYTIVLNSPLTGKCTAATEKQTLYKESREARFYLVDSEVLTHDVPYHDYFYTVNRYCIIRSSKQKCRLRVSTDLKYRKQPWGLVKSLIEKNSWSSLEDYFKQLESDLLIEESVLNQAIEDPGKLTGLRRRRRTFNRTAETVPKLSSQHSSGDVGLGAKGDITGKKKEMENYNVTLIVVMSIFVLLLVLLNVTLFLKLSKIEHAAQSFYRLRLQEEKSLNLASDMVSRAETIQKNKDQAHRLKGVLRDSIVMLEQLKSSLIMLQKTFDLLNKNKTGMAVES

[16] = Drug uptake in human HeLa cells assessed as increase in intracellular fluorescence at 10 uM incubated for 1 hr by […] microscopic analysis; format: ADME, cell-based

Kd (Protein Aster-A [1]) [µM]	ΔTm [2] [°C]	Activity [3]	Kd (Protein Aster-A [4]) [µM]	IC50 (Protein Aster-A [6]) [µM]	SMILES	Autophagy inhibition (active/not active) (MCF7)	IC50 (Protein Aster-A [5]) [µM]	other results
0.088	4.9	Active	0.049		CC(C)(C)OC(=O)N1CCC2N=C(NC(=O)c3ccc(C(=O)NCCOCCOCCOCCNc4cccc5c4C(=O)N(C4CCC(=O)NC4=O)C5=O)cc3)SC2C1 (configuration not stated)			
> 5	4	Active	0.149		CC(C)(C)OC(=O)N1CCC2N=C(NC(=O)c3ccc(C(=O)NCCOCCOCCNc4cccc5c4C(=O)N(C4CCC(=O)NC4=O)C5=O)cc3)SC2C1 (configuration not stated)	Active		
0.086	5.8	Active	0.068		CC(C)(C)OC(=O)N1CCC2N=C(NC(=O)c3ccc(C(=O)NCCCOCCOCCOCCCNc4cccc5c4C(=O)N(C4CCC(=O)NC4=O)C5=O)cc3)SC2C1 (configuration not stated)	Active		
	3.6			4.68	Cc1ncsc1-c1ccc(CNC(=O)[C@H]2C[C@H](O)CN2C(=O)[C@@H](NC(=O)CCCCCCNC(=O)c2ccc(C(=O)Nc3nc4c(s3)CN(C(=O)OC(C)(C)C)CC4)cc2)C(C)(C)C)cc1		2.75	
0.11	5	Active	0.037		CC(C)(C)OC(=O)N1CCC2N=C(NC(=O)c3ccc(C(=O)NCCCOCCOCCCNc4cccc5c4C(=O)N(C4CCC(=O)NC4=O)C5=O)cc3)SC2C1 (configuration not stated)			
	1.6			> 10	Cc1ncsc1-c1ccc(CNC(=O)[C@H]2C[C@H](O)CN2C(=O)[C@@H](NC(=O)CCCCCCCCCNC(=O)c2ccc(C(=O)Nc3nc4c(s3)CN(C(=O)OC(C)(C)C)CC4)cc2)C(C)(C)C)cc1		> 10	
	4.4			3.7	Cc1ncsc1-c1ccc(CNC(=O)[C@H]2C[C@H](O)CN2C(=O)[C@@H](NC(=O)COCCOCCNC(=O)c2ccc(C(=O)Nc3nc4c(s3)CN(C(=O)OC(C)(C)C)CC4)cc2)C(C)(C)C)cc1		1.47	

Continued, compound first:

SMILES	Kd (Protein Aster-A [1]) [µM]	ΔTm [2] [°C]	Activity [3]	Kd (Protein Aster-A [4]) [µM]	IC50 (Protein Aster-A [6]) [µM]	Autophagy inhibition (active/not active) (MCF7)	IC50 (Protein Aster-A [5]) [µM]	other results
CC(C)(C)OC(=O)N1CCC2N=C(NC(=O)c3ccc(C(=O)NCCCCCCCCCCNc4cccc5c4C(=O)N(C4CCC(=O)NC4=O)C5=O)cc3)SC2C1 (configuration not stated)	> 5	1.2	Active	> 5		inactive		
CCN(CC)CCO[C@H]1CC[C@@]2(C)C(=CC[C@@H]3[C@@H]2CC[C@]2(C)C(=O)CC[C@@H]32)C1		5.6						
Nc1cccc2c1C(=O)N(C1CCC(=O)NC1=O)C2=O (configuration not stated) [POMALIDOMIDE]	> 5	0.1		> 5				
CC(C)(C)OC(=O)N1CCC2N=C(NC(=O)c3ccc(C(=O)NCCCOCCCCOCCCNc4cccc5c4C(=O)N(C4CCC(=O)NC4=O)C5=O)cc3)SC2C1 (configuration not stated)	0.083	5.7	Active	0.09		Active		Activity [7]: inactive; Activity [8]: inactive; Activity [9]: Dose-Dependent Effect; DC50 [9]: 4.8 µM; Activity [10]: 50%; Activity [11]: inactive; Activity (Homo sapiens): inactive; Emax [12]: 60%; Activity [13]: inactive; Activity [14]: inactive; Activity [15]: inactive
CC(C)(C)OC(=O)NCCOCCOCCNc1cccc2c1C(=O)N(C1CCC(=O)NC1=O)C2=O (configuration not stated)	> 5	0.3		> 5				
CC(C)(C)OC(=O)N1CCC2N=C(NC(=O)c3ccc(C(=O)NCCCCCCNc4cccc5c4C(=O)N(C4CCC(=O)NC4=O)C5=O)cc3)SC2C1 (configuration not stated)	0.765	3.2	Active	0.745		inactive		Drug uptake [16]: Active
CC12CCC(O)CC1CCc1cnn(-c3ccccc3F)c12 (configuration not stated)		0.2			> 10		> 10	
CC(C)Oc1ccc(C(=O)Nc2nc3c(s2)CN(C(=O)OC(C)(C)C)CC3)cc1		6.8			1.93		1.18	
